Experimental data: patent US20110039721A1, “METHOD FOR PREDICTION ABOUT CARCINOGENICITY OF SUBSTANCE IN RODENT” (Chemicals Evaluation and Research Institute, priority 2007, published 2011)

How the values were obtained:
liver = conditions: in vivo; cited from earlier work
[1] = classification of the substance (M+/M−); cited from earlier work
[2] = tested on: mRNA expressed from the genes (A) to (D) in rat liver; assay: Behavior of genes (mRNA expression level, oligo-DNA microarray) in rat liver after 28-day oral administration; assay type: in vivo
How it was run: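 Liver mRNA levels were compared with matched vehicle groups, with a shift of at least 1.5-fold up or down deemed significant unless its direction disagreed with other carcinogens. Test substances were dosed orally by gavage daily for 28 days to 5-week-old male F344 rats, four per group.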

rodent = conditions: classification of the substance (C+/C−); cited from earlier work
[3] = gene group (A), Unigene No. Rn.167075
[4] = gene group (C), Unigene No. Rn.120914

O=C1CCCCCN1 [TS074, Caprolactam]
Liver carcinogenicity (liver): Cr−
Mutagenicity by Ames test [1]: M−
Behavior of gene caused by administration of chemical substance, Gene No. 4846 ([2]; gene group (A), Unigene No. Rn.144554): −
Behavior of gene caused by administration of chemical substance, Gene No. 2026 [2, 3]: −
Behavior of gene caused by administration of chemical substance, Gene No. 4218 [2, 3]: −
Behavior of gene caused by administration of chemical substance, Gene No. 6182 ([2]; gene group (A), Unigene No. Rn.5834): +
Behavior of gene caused by administration of chemical substance, Gene No. 5600 ([2]; gene group (A), Unigene No. Rn.9836): −
Behavior of gene caused by administration of chemical substance, Gene No. 1494 ([2]; gene group (B), Unigene No. Rn.1430): −
Behavior of gene caused by administration of chemical substance, Gene No. 2045 ([2]; gene group (B), Unigene No. Rn.19329): +
Behavior of gene caused by administration of chemical substance, Gene No. 2203 ([2]; gene group (B), Unigene No. Rn.21240): −
Behavior of gene caused by administration of chemical substance, Gene No. 533 ([2]; gene group (C), Unigene No. Rn.106184): −
Behavior of gene caused by administration of chemical substance, Gene No. 725 ([2]; gene group (C), Unigene No. Rn.108075): +
Behavior of gene caused by administration of chemical substance, Gene No. 1163 ([2]; gene group (C), Unigene No. Rn.11766): −
Behavior of gene caused by administration of chemical substance, Gene No. 4973 ([2]; gene group (C), Unigene No. Rn.118529): +
Behavior of gene caused by administration of chemical substance, Gene No. 4095 ([2]; gene group (C), Unigene No. Rn.119024): +
Behavior of gene caused by administration of chemical substance, Gene No. 1334 [2, 4]: −
Behavior of gene caused by administration of chemical substance, Gene No. 6620 [2, 4]: −
Behavior of gene caused by administration of chemical substance, Gene No. 6303 ([2]; gene group (C), Unigene No. Rn.123063): −
Behavior of gene caused by administration of chemical substance, Gene No. 5878 ([2]; gene group (C), Unigene No. Rn.143213): −
Behavior of gene caused by administration of chemical substance, Gene No. 1131 ([2]; gene group (C), Unigene No. Rn.144946): −
Behavior of gene caused by administration of chemical substance, Gene No. 1562 ([2]; gene group (C), Unigene No. Rn.14744): −
Behavior of gene caused by administration of chemical substance, Gene No. 1741 ([2]; gene group (C), Unigene No. Rn.1647): +
Behavior of gene caused by administration of chemical substance, Gene No. 893 ([2]; gene group (C), Unigene No. Rn.164817): −
Behavior of gene caused by administration of chemical substance, Gene No. 6026 ([2]; gene group (C), Unigene No. Rn.167685): −
Behavior of gene caused by administration of chemical substance, Gene No. 154 ([2]; gene group (C), Unigene No. Rn.185941): −
Behavior of gene caused by administration of chemical substance, Gene No. 1993 ([2]; gene group (C), Unigene No. Rn.18728): −
Behavior of gene caused by administration of chemical substance, Gene No. 813 ([2]; gene group (C), Unigene No. Rn.201760): −
Behavior of gene caused by administration of chemical substance, Gene No. 2494 ([2]; gene group (C), Unigene No. Rn.23969): −
Behavior of gene caused by administration of chemical substance, Gene No. 2546 ([2]; gene group (C), Unigene No. Rn.24561): −
Behavior of gene caused by administration of chemical substance, Gene No. 3776 ([2]; gene group (C), Unigene No. Rn.43232): +
Behavior of gene caused by administration of chemical substance, Gene No. 3929 ([2]; gene group (C), Unigene No. Rn.4620): +
Behavior of gene caused by administration of chemical substance, Gene No. 1119 ([2]; gene group (C), Unigene No. Rn.9757): −
Behavior of gene caused by administration of chemical substance, Gene No. 6742 ([2]; gene group (C), Unigene No. Rn.9779): −
Behavior of gene caused by administration of chemical substance, Gene No. 5634 ([2]; gene group (C), Unigene No. Rn.9862): +
Behavior of gene caused by administration of chemical substance, Gene No. 5726 ([2]; gene group (D), Unigene No. Rn.9939): −
Carcinogenicity (rodent): C−
